Data as given in US9957264B2 (Merck Sharp & Dohme Corp., priority 2013, dated 2018).

How the values were obtained:
[1] = target: JAK1 (recombinant purified GST-tagged catalytic domain) (Homo sapiens (Human), UniProt P23458); assay: Jak Biochemical HTRF Assay (JAK1); conditions: [ATP] 31.8 μM
Summary of the method: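 GST-tagged human catalytic domains of JAK1 or JAK2 phosphorylated a biotinylated peptide substrate for 120 min at room temperature after ATP addition. Reaction quenched with EDTA stop buffer containing streptavidin-Dylight 650 and Eu-pY20 antibody; HTRF 665/615 nm ratio normalized to untreated controls, IC50 from 4-parameter fit.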

[2] = target: JAK2 (recombinant purified GST-tagged catalytic domain) (Homo sapiens (Human), UniProt O60674); assay: Jak Biochemical HTRF Assay (JAK2); conditions: [ATP] 8.5 μM
JAK2 (recombinant purified GST-tagged catalytic domain), sequence (O60674 849-1124): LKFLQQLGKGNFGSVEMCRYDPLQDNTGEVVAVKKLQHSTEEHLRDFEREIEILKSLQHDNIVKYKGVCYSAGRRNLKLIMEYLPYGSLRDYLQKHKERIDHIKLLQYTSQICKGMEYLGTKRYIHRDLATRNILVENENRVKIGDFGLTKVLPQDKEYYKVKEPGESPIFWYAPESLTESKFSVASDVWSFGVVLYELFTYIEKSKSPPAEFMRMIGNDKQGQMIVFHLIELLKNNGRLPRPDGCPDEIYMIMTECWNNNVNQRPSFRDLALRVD

JAK1 (recombinant purified GST-tagged catalytic domain), sequence (P23458 875-1153): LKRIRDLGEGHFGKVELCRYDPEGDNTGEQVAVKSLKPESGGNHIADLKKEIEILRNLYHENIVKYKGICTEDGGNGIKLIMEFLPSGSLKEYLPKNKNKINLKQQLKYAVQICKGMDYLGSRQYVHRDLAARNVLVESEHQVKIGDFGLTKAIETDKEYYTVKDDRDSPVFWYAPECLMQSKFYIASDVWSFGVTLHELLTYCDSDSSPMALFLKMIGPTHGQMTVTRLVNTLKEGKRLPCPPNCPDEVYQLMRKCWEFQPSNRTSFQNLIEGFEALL

| SMILES | IC50 [1] [nM] | IC50 [2] [nM] |
| --- | --- | --- |
| CC(C)(C)OC(=O)N1CCC(CC#N)(n2nc(Nc3ccnc(F)c3)c3c(=O)[nH]ccc32)CC1 [Example 5-78, tert-butyl 4-(cyanomethyl)-4-{3-[(2-fluoropyridin-4-yl)amino]-4-oxo-4,5-dihydro-1H-pyrazolo[4,3-c]pyridin-1-yl}piperidine-1-carboxylate] | 0.18 | 2.12 |
| CC(C)(C)N1Cc2cc(Nc3nn(C4(CC#N)CCCCC4)c4cc[nH]c(=O)c34)ccc2S1(=O)=O [Example 5-80, 2-(1-(3-((2-(tert-butyl)-1,1-dioxido-2,3-dihydrobenzo[d]isothiazol-5-yl)amino)-4-oxo-4,5-dihydro-1H-pyrazolo[4,3-c]pyridin-1-yl)cyclohexyl)acetonitrile] | 0.08 | 1.21 |
| CSC(C)C(=O)N1CCC(CC#N)(n2nc(Nc3ccc(S(=O)(=O)N(C)C)cc3)c3c(=O)[nH]ccc32)CC1 (stereo not shown) [Example 9-24, 4-((1-(4-(cyanomethyl)-1-(2-(methylthio)propanoyl)piperidin-4-yl)-4-oxo-4,5-dihydro-1H-pyrazolo[4,3-c]pyridin-3-yl)amino)-N,N-dimethylbenzenesulfonamide] | 0.14 | 0.36 |
| N#CC[C@]1(n2nc(Nc3ccc(Cl)cc3)c3c(=O)[nH]ccc32)CC[C@@H](Nc2ccccc2)CC1 [Example 18-13, Cis 2-(1-(3-((4-chlorophenyl)amino)-4-oxo-4,5-dihydro-1H-pyrazolo[4,3-c]pyridin-1-yl)-4-(phenylamino)cyclohexyl)acetonitrile] | 65 | > 1500 |
| CC(C)(C)OC(=O)N1CC[C@](CC#N)(n2nc(Nc3ccc([C@@H](O)C(F)(F)F)cc3)c3c(=O)[nH]ccc32)[C@H](F)C1 (single isomer, unassigned) [Example 5-21, tert-butyl (3R,4R)-4-(cyanomethyl)-3-fluoro-4-[4-oxo-3-({4-[(1R or 1S)-2,2,2-trifluoro-1-hydroxyethyl]phenyl}amino)-4,5-dihydro-1H-pyrazolo[4,3-c]pyridin-1-yl]piperidine-1-carboxylate] | 0.15 | 0.14 |
| CC(C)S(=N)(=O)c1ccc(Nc2nn([C@]3(CC#N)CCCOC3)c3cc[nH]c(=O)c23)cc1 (single isomer, unassigned) [Example 5-233, 2-((3S)-3-(4-oxo-3-((4-(propan-2-yl-(S or R)-sulfonimidoyl)phenyl)amino)-4,5-dihydro-1H-pyrazolo[4,3-c]pyridin-1-yl)tetrahydro-2H-pyran-3-yl)acetonitrile] | 0.36 | 0.4 |
| Cc1cc(Nc2nn(C3(CC#N)CCN(C(=O)OC(C)(C)C)CC3)c3cc[nH]c(=O)c23)ccc1C(=O)N1CC2CCC(C1)O2 [Example 21-12, tert-butyl-4-(3-((4-(8-oxa-3-azabicyclo[3.2.1]octane-3-carbonyl)-3-methylphenyl)amino)-4-oxo-4,5-dihydro-1H-pyrazolo[4,3-c]pyridin-1-yl)-4-(cyanomethyl)piperidine-1-carboxylate] | 0.26 | 0.18 |
| CC(C)(C)OC(=O)[C@@H]1CC[C@@](CC#N)(n2nc(Nc3ccc4nc(N5CC6CCC(C5)O6)ccc4c3)c3c(=O)[nH]ccc32)CO1 [Example 5-229, (2S,5S)-tert-butyl 5-(3-((2-(8-oxa-3-azabicyclo[3.2.1]octan-3-yl)quinolin-6-yl)amino)-4-oxo-4,5-dihydro-1H-pyrazolo[4,3-c]pyridin-1-yl)-5-(cyanomethyl) tetrahydro-2H-pyran-2-carboxylate] | 0.34 | 1.39 |

Further lines, results first:

| IC50 [1] [nM] | IC50 [2] [nM] | SMILES |
| --- | --- | --- |
| 0.1 | 0.14 | COC(=O)N1CCC(CC#N)(n2nc(Nc3ccc(S(=O)(=O)C(C)(C)C)cc3)c3c(=O)[nH]ccc32)CC1 [Example 5-150, methyl 4-(3-((4-(tert-butylsulfonyl)phenyl)amino)-4-oxo-4,5-dihydro-1H-pyrazolo [4,3-c]pyridin-1-yl)-4-(cyanomethyl)piperidine-1-carboxylate] |
| 0.06 | 0.1 | CC(C#N)OC(=O)N1CCC(CC#N)(n2nc(Nc3ccc(S(=O)(=O)N(C)C)cc3)c3c(=O)[nH]ccc32)CC1 (stereo not shown) [Example 11-10, 1-cyanoethyl 4-(cyanomethyl)-4-(3-((4-(N,N-dimethylsulfamoyl)phenyl)amino)-4-oxo-4,5-dihydro-1H-pyrazolo[4,3-c]pyridin-1-yl)piperidine-1-carboxylate] |
| 1.94 | 12.4 | CC(C)Oc1ccc(CN2CCC(CC#N)(n3nc(Nc4ccc(S(=O)(=O)N(C)C)cc4)c4c(=O)[nH]ccc43)CC2)cc1 [Example 8-6, 4-[(1-{4-(cyanomethyl)-1-[4-(1methylethoxy)benzyl]piperidin-4-yl}-4-oxo-4,5-dihydro-1H-pyrazolo[4,3-c]pyridin-3-yl)amino]-N,N-dimethylbenzenesulfonamide] |
| 0.13 | 1.13 | N#CC[C@@]1(n2nc(Nc3ccc4c(c3)CN(C3CCCC3)C4=O)c3c(=O)[nH]ccc32)CCCOC1 [Example 5-197, [(3S)-3-{3-[(2-cyclopentyl-1-oxo-2,3-dihydro-1H-isoindol-5-yl)amino]-4-oxo-4,5-dihydro-1H-pyrazolo[4,3-c]pyridin-1-yl}tetrahydro-2H-pyran-3-yl]acetonitrile] |
| 32.9 | 218 | CC(C)(C)OC(=O)N1CC(CC#N)(n2nc(Nc3ccnc(C(F)(F)F)c3)c3c(=O)[nH]ccc32)C1 [Example 4-1, tert-butyl 3-(cyanomethyl)-3-(4-oxo-3-((2-(trifluoromethyl)pyridin-4-yl)amino)-4,5-dihydro-1H-pyrazolo[43-c]pyridin-1-yl)azetidine-1-carboxylate] |
| 0.11 | 0.34 | N#CC[C@@]1(n2nc(Nc3ccc(C(N)C(F)(F)F)cc3)c3c(=O)[nH]ccc32)CCCOC1 (single isomer, unassigned) [Example 5-188, {(3S)-3-[3-({4-[(1S or 1R)-1-amino-2,2,2-trifluoroethyl]phenyl}amino)-4-oxo-4,5-dihydro-1H-pyrazolo[4,3-c]pyridin-1-yl]tetrahydro-2H-pyran-3-yl}acetonitrile] |
| 0.15 | 0.28 | CC(C)S(=O)(=O)c1ccc(Nc2nn([C@]3(CC#N)CC[C@@H](C(=O)OC(C)(C)C)OC3)c3cc[nH]c(=O)c23)cc1 [Example 5-237, (2S,5S)-tert-butyl 5-(cyanomethyl)-5-(3-((4-(isopropylsulfonyl)phenyl)amino)-4-oxo-4,5-dihydro-1H-pyrazolo[4,3-c]pyridin-1-yl)tetrahydro-2H-pyran-2-carboxylate] |
| 0.15 | 2.3 | CN(C)c1ccc2cc(Nc3nn([C@]4(CC#N)CCCOC4)c4cc[nH]c(=O)c34)ccc2n1 [Example 5-225, (S)-2-(3-(3-((2-(dimethylamino)quinolin-6-yl)amino)-4-oxo-4,5-dihydro-1H-pyrazolo[4,3-c]pyridin-1-yl)tetrahydro-2H-pyran-3-yl)acetonitrile] |
| 1.69 | 16.8 | CN(C)S(=O)(=O)c1ccc(Nc2nn(C3(CC#N)CCN(C(=O)c4ccccc4)CC3)c3cc[nH]c(=O)c23)cc1 [Example 9-12, 4-({1-[4-(cyanomethyl)-1-(phenylcarbonyl)piperidin-4-yl]-4-oxo-4,5-dihydro-1H-pyrazolo[4,3-c]pyridin-3-yl}amino)-N,N-dimethylbenzenesulfonamide] |
